Measured values published in patent publication US20230365570A1, “COMPOUNDS WITH GLUCOCORTICOID SPARING EFFECTS AND USES THEREOF” (The Regents of the University of California, priority 2020, published 2023).

Legend:
[1] = tested on: THP-1 cells; assay: CXCL8 production by LPS stimulated THP-1 cells (ELISA); assay type: cell-based, human; details: LPS 10 ng/ml, purchased compound, mean LPS CXCL8 201.1 pg/ml = 100%
Experimental: (§1) THP-1 cells (10^5 cells/200 μL/well) and RA FLS (104/200 μL/well) were plated in 96 well plates and pre-treated with compound or vehicle for 1 h and then stimulated with either LPS (10 ng/ml), 1L-1ß (2 ng/ml) or TNF (2 ng/ml for THP-1 and 1 ng/ml for RA FLS). After 18 h of incubation, supernatants were collected and the levels of cytokines and chemokines in the culture supernatants were measured by ELISA according to the manufacturer's protocols (R&D systems, Minneapolis, MN).
The 122 hit compounds underwent additional screening and were evaluated for their effects on cell viability and the ability to suppress production of an NF-κB-associated chemokine, CXCL8 (IL-8) by LPS stimulated THP-1 cells (FIG. 2D). The cells were also examined for viability after 24 h of stimulation by MTT assay (FIG. 2E).
Three of the eleven chemotypes were excluded based on the potential for them to be Michael acceptors, In many cases α,β-unsaturated carbonyls such as those found in these chemotypes can form adducts with thiols, especially under physiological conditions (pH=6-8), reducing the in vivo efficacy. Also, Michael acceptors are often […] IKKß inhibitors and thereby inhibit NF-KB response. […]

[2] = tested on: THP-1 cells; assay: Cell viability by MTT assay in THP-1 cells; assay type: cell-based, human; details: purchased compound
Experimental: Two types of tetrazolium were used for viability assays. […] After 18 h of incubation, 0.5 mg/ml 3[4,5-dimethylthiazol-2-yl]-2,5-dipheyl tetrazolium bromide (MTT; Thermo Fisher Scientific) in assay media was added to each well at a final concentration of (0.5 mg/ml) and further incubated for 4-6 h. The absorbances at 570 and 650 nm were measured by a Tecan Infinite M200 plate reader, For RA FLS, the cells were dispersed into 96-well flat bottom plates (104/200 μL/well) and incubated overnight. The next day, RA FLS were treated with 5 μM of each compound for 18 h of incubation. Ten μl of WST-8 [2-(2-methoxy-4-nitrophenyl)-3-(4-nitrophenyl)-5-(2,4-disulfophewnyl)-2H-tetrazolium, monosodium salt] solution was added to each well and the cells were further incubated for 2-4 h. The absorbance was measured at 450 nm with Bio-Rad iMark plate reader (Bio-Rad Laboratories Inc., Hercules, CA, Unites States).

[3] = tested on: THP-1 cells; assay: IL-1ß stimulated CXCL8 release by THP-1 cells; assay type: cell-based, human; details: IL-1ß 2 ng/ml, overnight (FIG. 3C)
Experimental: as §1
(§2) The lead compounds belonging to chemotypes 1, 3, and 5 were tested for potency in suppressing chemokine and cytokine production by THP-1 cells in the presence of different inflammatory stimuli. The production of CXCL8 induced by either LPS (10 ng/ml), IL-1ß (2 ng/ml), or TNF (2 ng/ml) and TNF induced by IL-1ß (2 ng/ml) was assessed using serially diluted compounds. The compounds except 1-2 reduced the level of CXCL8 production stimulated by LPS in a dose dependent manner (FIG. 3A). However, the compounds from chemotype 5 enhanced CXCL8 release by THP-1 cells when stimulated with IL-111, or TNF (FIGS. 3B, C). […] The 1Cs0 for 1-1, 1-2 and 3-1 for IL-1ß stimulated CXCL8 release included 400, 1770, and 2020 nM, respectively, (FIG. 3C).

[4] = tested on: THP-1 cells; assay: IL-1ß stimulated TNF release by THP-1 cells; assay type: cell-based, human; details: THP-1 cells, IL-1ß 2 ng/ml, overnight (FIG. 3D)
Experimental: as §1, §2

[5] = tested on: RA FLS; assay: Chemokine and cytokine production by TNF stimulated RA FLS; assay type: cell-based, human
Excerpt: Rheumatoid arthritis fibroblast-like synoviocytes (RA FLS) were isolated from synovial tissues derived from patients with RA when they underwent joint replacement surgery or synovectomy. Patients were age ≥18 years with active RA based on the ACR 1987 Revised Criteria and consent forms were completed by the patients before surgery. The study protocol was approved by the institutional review board at TokyoMedical andDental University, Tokyo, Japan and are in accordance with the principles of the Declaration of Helsinki. RA FLS were cultured in DMEM supplemented with 10% FBS, 100 U/mL penicillin, and 100 μg/mL streptomycin in a humidified 5% CO2 incubator. All experiments used proliferating RA FLS.
as §1
In the pathogenesis of rheumatoid arthritis, fibroblast-like synoviocytes (RA FLS) are a primary source of inflammatory cytokines and chemokines in inflamed joints. The immunomodulatory effects and cytotoxicity of compound 1-1 on RA FLS was analyzed. […] To assess the synergistic effect of compound 1-1 with DEX in RA FLS, IL-6 and CXCL8 suppression was analyzed by co-titrating DEX and compound 1-1 in cultures with TNF stimulated RA FLS (FIG. 7A, B).

[6] = tested on: RA FLS; assay: Cell viability of RA FLS by WST-8 assay; assay type: cell-based, human; details: WST-8 assay (FIG. 6F)
Experimental: Two types of tetrazolium were used for viability assays. For THP-1 cells, the cells were dispensed in 96-well plates (10^5 cells/200 μL/ well) and treated with 5 Oil of each compound. After 18 h of incubation, 0.5 mg/ml 3[4,5-dimethylthiazol-2-yl]-2,5-dipheyl tetrazolium bromide (MTT; Thermo Fisher Scientific) in assay media was added to each well at a final concentration of (0.5 mg/ml) and further incubated for 4-6 h. The absorbances at 570 and 650 nm were measured by a Tecan Infinite M200 plate reader, For RA FLS, the cells were dispersed into 96-well flat bottom plates (104/200 μL/well) and incubated overnight. The next day, RA FLS were treated with 5 μM of each compound for 18 h of incubation. Ten μl of WST-8 [2-(2-methoxy-4-nitrophenyl)-3-(4-nitrophenyl)-5-(2,4-disulfophewnyl)-2H-tetrazolium, monosodium salt] solution was added to each well and the cells were further incubated for 2-4 h. The absorbance was measured at 450 nm with Bio-Rad iMark plate reader (Bio-Rad Laboratories Inc., Hercules, CA, Unites States).

[7] = target: metabotropic glutamate receptor subtype 4 (mGluR4) (Homo sapiens, UniProt Q14833); details: previously described in another system; cited from earlier work
Chain of metabotropic glutamate receptor subtype 4 (mGluR4) (Q14833 33-912): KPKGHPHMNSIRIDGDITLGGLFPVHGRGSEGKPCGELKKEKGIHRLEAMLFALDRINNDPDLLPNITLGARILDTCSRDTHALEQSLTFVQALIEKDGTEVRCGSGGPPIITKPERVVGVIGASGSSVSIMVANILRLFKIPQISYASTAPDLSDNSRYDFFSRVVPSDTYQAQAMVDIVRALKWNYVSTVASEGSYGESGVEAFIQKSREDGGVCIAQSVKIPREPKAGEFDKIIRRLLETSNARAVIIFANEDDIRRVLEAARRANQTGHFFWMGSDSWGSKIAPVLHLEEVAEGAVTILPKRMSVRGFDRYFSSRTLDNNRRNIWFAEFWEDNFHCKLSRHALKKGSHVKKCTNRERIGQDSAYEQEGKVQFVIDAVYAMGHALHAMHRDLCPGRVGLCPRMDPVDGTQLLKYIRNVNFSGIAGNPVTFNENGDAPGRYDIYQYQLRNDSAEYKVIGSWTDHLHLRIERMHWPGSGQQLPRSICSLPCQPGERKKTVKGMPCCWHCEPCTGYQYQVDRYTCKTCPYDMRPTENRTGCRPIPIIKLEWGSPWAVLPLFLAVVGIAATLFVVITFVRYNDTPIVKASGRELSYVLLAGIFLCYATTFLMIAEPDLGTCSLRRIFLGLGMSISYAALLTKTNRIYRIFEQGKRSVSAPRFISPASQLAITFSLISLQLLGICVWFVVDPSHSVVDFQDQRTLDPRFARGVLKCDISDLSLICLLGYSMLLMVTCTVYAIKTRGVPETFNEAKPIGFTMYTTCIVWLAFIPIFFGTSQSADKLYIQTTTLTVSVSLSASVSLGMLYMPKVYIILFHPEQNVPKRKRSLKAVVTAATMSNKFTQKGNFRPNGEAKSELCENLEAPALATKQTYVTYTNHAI

Cc1ccc(-n2ncc3c(NC4CCCCC4)ncnc32)c(C)c1 [Compound 1-1]
CXCL8 production. Relative to LPS (purchased) [1]: 47.1%
% Cellular Viability (Purchased) [2]: 98.7%
IC50 [3]: 400 nM
IC50 [4]: 190 nM
CCL2 production induced by TNF ([5]; TNF 1 ng/ml overnight): dose-dependently suppressed
CXCL1 production induced by TNF ([5]; TNF 1 ng/ml overnight): dose-dependently suppressed
CXCL8 production induced by TNF ([5]; TNF 1 ng/ml overnight): dose-dependently suppressed
IL-6 production induced by TNF ([5]; TNF 1 ng/ml overnight): dose-dependently suppressed
MMP-3 production induced by TNF ([5]; TNF 1 ng/ml overnight): not
IC50 in RA FLS ([5]; comparable to that in THP-1): micromolar level
Cytotoxicity in RA FLS [6]: low cytotoxicity
Modulation of mGluR4 [7]: positive allosteric modulator
